Test results published in article PMC5797111, “Molecular and Functional Characterization of pheromone binding protein 1 from the Oriental Fruit Moth, Grapholita molesta (Busck)” (Scientific Reports, 2018).

Experiments:
GmolPBP1 [1] = target: T1, GmolPBP1 (Grapholita molesta, UniProt A0A2R4SBD6); experiment: 1-NPN fluorescence binding (titration, Scatchard plot); settings: 2 μM GmolPBP1 in 20 mM Tris-HCl pH 7.4, 1-NPN 2–16 μM; read-out: dissociation constant of the GmolPBP1/1-NPN complex
Protocol: (§1) To understand the binding properties of the GmolPBP1 with four sex pheromone components of G. molesta and the Codlemone of C. pomonella. We expressed and purified the protein (Figure S1). Then, a competitive binding assay was performed with 1-NPN as the fluorescence probe. The probe was excited at 337 nm and emission spectra were recorded between 370 and 500 nm. The fluorescent intensity of the 1-NPN alone was fairly low, then a strong blue shift, and peaked at about 410 nm with the presence of GmolPBP1. The intensity of this peak was used to determine the dissociation constant of the GmolPBP1/1-NPN complex.
Emission fluorescence spectra were performed on an F-4600 fluorescence Spectrophotometer (Hitachi, Japan) in a 1 cm light path quartz cuvette with 10 nm slit width for both excitation and emission. The excitation wavelength was set at 337 nm and emission spectra were recorded between 370 and 500 nm. […] The fluorescence intensities at the maximum fluorescence emission between 370 and 500 nm were plotted against the concentrations of added 1-NPN. […] The concentrations of bound 1-NPN were evaluated from the values of fluorescence intensity assuming that the protein was 100% active with a stoichiometry of 1:1 (protein: ligand) at saturation. […]

GmolPBP1 [2] = target: T1, GmolPBP1; experiment: Fluorescence competitive binding assay with 1-NPN as probe; settings: for IC50 / Ki: 1-NPN and GmolPBP1 both at 2 μM; for IC50 / binding affinity to GmolPBP1 (in words): ligands 1 to 10 μM; for IC50: read-out: IC50 (ligand concentration displacing half of the initial fluorescence intensity of the GmolPBP1/1-NPN complex); for Ki: calculated from the IC50 value, read-out: Ki (dissociation constant); for binding affinity to GmolPBP1 (in words): displacement of 1-NPN
Protocol: as §1
The displacement of 1-NPN by different sex pheromone components was measured for GmolPBP1 in the competitive binding assy. These ligands included the four sex pheromone components of G. molesta (Z)-8-dodecenyl acetate, (E)-8-dodecenyl acetate, (Z)-8-dodecenyl alcohol and 1-dodecanol as well as the C. pomonella Codlemone. […] The dissociation constants for these three compounds are 1.73 ± 0.31, 2.25 ± 0.63 and 1.88 ± 0.25 μM, respectively.
Emission fluorescence spectra were performed on an F-4600 fluorescence Spectrophotometer (Hitachi, Japan) in a 1 cm light path quartz cuvette with 10 nm slit width for both excitation and emission. The excitation wavelength was set at 337 nm and emission spectra were recorded between 370 and 500 nm. The fluorescent probe N-phenyl-1-naphthylamine (1-NPN) and the ligands used in the binding assay were dissolved in spectrophotometric-grade methanol to yield a 1-mM stock solution (for the sources of these chemicals, see Table S1). To determine the dissociation constant between 1-NPN and GmolPBP1, 2 μM GmolPBP1 dissolved in 20 mM Tris-HCl pH 7.4 was titrated with 1 mM 1-NPN to final concentrations of 2–16 μM. The fluorescence intensities at the maximum fluorescence emission between 370 and 500 nm were plotted against the concentrations of added 1-NPN. The curve was linearized using Scatchard plots. The concentrations of bound 1-NPN were evaluated from the values of fluorescence intensity assuming that the protein was 100% active with a stoichiometry of 1:1 (protein: ligand) at saturation. The affinities of the selected ligands were measured by competitive binding assays by adding the ligands from 1 to 10 μM into the 1-NPN/GmolPBP1 solution (both at 2 μM). The emission spectra were recorded between 370 and 500 nm and the maximum fluorescence intensities were plotted against the ligand concentrations after normalization relative to the intensity at zero ligand. For these competitor ligands, the dissociation constants were computed from the corresponding IC50 values using the quation: Ki = [IC50]/(1 + [1-NPN]/K1-NPN), where [1-NPN] is the free concentration of 1-NPN and K1-NPN is the dissociation constant of the protein complex/1-NPN. All values reported were collected in three independent measurements.

GmolPBP2 = target: GmolPBP2; design: method as in doi:10.1016/S2095-3119(13)60686-3; settings: cited from earlier work
CpomPBP1 = test system: CpomPBP1; design: method as in PMID 27491022, PMID 27709920; settings: cited from earlier work
CpomPBP2 = test system: CpomPBP2; design: method as in PMID 27491022, PMID 27709920; settings: cited from earlier work
male G. molesta = test system: male G. molesta; design: method as in earlier work; settings: added to blend of (Z)-8-dodecenyl acetate (85.5%), (E)-8-dodecenyl acetate (5.5%) and (Z)-8-dodecenyl alcohol (9%); cited from earlier work

T1 sequence (A0A2R4SBD6 entry or part of it): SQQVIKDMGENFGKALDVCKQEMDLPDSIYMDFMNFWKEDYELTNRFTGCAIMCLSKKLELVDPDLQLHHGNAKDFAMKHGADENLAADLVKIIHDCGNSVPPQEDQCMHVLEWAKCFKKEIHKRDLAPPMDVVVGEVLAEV

SMILES	Kd (GmolPBP1 [1])	IC50 (GmolPBP1 [2])	Ki (GmolPBP1 [2])	binding affinity to GmolPBP1 (in words) (GmolPBP1 [2])	Ki (GmolPBP2)	affinity to CpomPBP1 (in words) (CpomPBP1)	affinity to CpomPBP2 (in words) (CpomPBP2)	increase of trap catches of male G. molesta over the G. molesta blend alone (male G. molesta)
c1ccc(Nc2cccc3ccccc23)cc1 [1-NPN, N-phenyl-1-naphthylamine]	2410 ± 250 nM	–	–	–	–	–	–	–
CCCCCCCCCCCCO [1-dodecanol]	–	3200 ± 890 nM	2250 ± 630 nM	strong affinity	–	–	–	–
CCC/C=C/CCCCCCCOC(C)=O [(E)-8-dodecenyl acetate]	–	–	–	could not displace half of the total 1-NPN	1100 ± 50 nM	–	–	–
CCC/C=C\CCCCCCCOC(C)=O [(Z)-8-dodecenyl acetate]	–	–	–	could not displace half of the total 1-NPN	1090 ± 40 nM	–	–	–
CCC/C=C\CCCCCCCO [(Z)-8-dodecenyl alcohol]	–	2460 ± 430 nM	1730 ± 310 nM	strong affinity	–	–	–	–
C/C=C/C=C/CCCCCCCO [Codlemone, E, E-8, 10-Dodecadienol]	–	2660 ± 350 nM	1880 ± 250 nM	strong affinity	–	strong affinity	poor affinity	two- to three-fold
